Data on three compounds can be found in US5635510A, “Substituted pyrrolidin-3-yl-alkyl-piperidines” (Merrell Pharmaceuticals Inc., priority 1994, dated 1997).

Counter-ions that a name gives are not always drawn.

Test [1] addresses T1, NK1 receptor (Homo sapiens, UniProt P25103).
T1 construct: antagonizes both NK1 (on UC11 cells); endogenous in cells; host or cells: UC11 cells
In words: Antagonism of NK1 receptor mediated (SP-induced) phosphatidylinositol turnover in UC11 cells. It counts as cell-based. Conditions: for relative antagonism of NK1 and NK2 receptors (in words): PI turnover, UC11 (NK1) versus SKLKB82#3 (NK2) cells. As to the method:
(§1) Tachykinin-mediated inositol phosphate accumulation was measured in UC11 or SKLKB82#3 cells in the presence and absence of NK1 or NK2 receptor antagonists, respectively. Tissues were incubated in Krebs-Henseleit buffer at 37° C. with 95% O2 -5% CO2 gassing. Tissues were then incubated with fresh buffer containing 100 μCi of myo-[2-3H(N)] inositol at 37° C. for 60 min with gentle gassing. After washing twice in 5 ml room temperature buffer containing 10 mM LiCl, tissues were incubated for 30 min at room temperature with a buffer change at 15 min. Buffer was removed and Krebs-Henseleit buffer (containing 40 μg/ml bacitracin, 4 μg/ml each of leupeptin and chymostatin, 0.1% bovine serum albumin and 10 mM each of thiorphan and LiCl) added. After 15 min, SP was added to UC11 cells or NKA to SKLKB82#3 cells at various concentrations to start the reaction. After incubation for 60 min at room temperature the reaction was terminated by addition of 930 μl chloroform: methanol (1:2 by volume) to each tube, followed by 310 μl chloroform and 310 μl doubly distilled water. Samples were vortexed, centrifuged, and 0.9 ml of the aqueous (top) phase removed and added to 2 ml ddH2 O. The mixture was vortexed and loaded onto a 50% Bio-Rad AG 1-X8 (formate form, 100-200 mesh) exchange column (Bio-Rad Laboratories, Hercules, Calif.). The columns were washed, in order, with: 1) 10 ml doubly distilled water, 2) 5 ml of 5 mM disodium tetraborate/60 mM sodium formate, and 3) 5 ml of 1M ammonium formate/0.1M formic acid. The third elution was collected and 1 ml counted in 7 ml scintillation fluid. A 50 μl aliquot of the organic (bottom) phase was removed, dried in a scintillation vial and counted in 7 ml scintillation fluid.
(§2) The ratio of DPM in the aqueous phase aliquot (total inositol phosphates) to the DPM in the 50 μl organic phase aliquot (total [^3 H]inositol incorporated) was calculated for each sample. Data are expressed as a percent of agonist-induced accumulation of [^3 H]-inositol phosphates over basal levels. The ratios in the presence of test compound and/or standards were compared to the ratios for control samples (i.e. no stimulating agonist). Dose-response graphs were constructed and the abilities of the test compounds to inhibit tachykinin-induced phosphatidyinositol turnover determined with the aid of a computer program. […] Data is expressed as percent stimulation of total inositol phosphate accumulation over basal levels and normalized to the maximum response produced by SP. […] Schild analysis is performed using dose response curves (such as those presented in FIGS. 1a and 1b) to obtain a value indicative of the strength of a competitive antagonist and is expressed as the pA2, which is the negative logarithm of the molar concentration of antagonist which reduces the effect of a dose of agonist to one-half of that expected at the dose of agonist.

For test [2], the target named is T2, NK2 receptor (Bos taurus, UniProt P05363).
T2 construct: expressed in transfected cells; host or cells: SKLKB82#3 cells
T2 sequence (P05363 1-384): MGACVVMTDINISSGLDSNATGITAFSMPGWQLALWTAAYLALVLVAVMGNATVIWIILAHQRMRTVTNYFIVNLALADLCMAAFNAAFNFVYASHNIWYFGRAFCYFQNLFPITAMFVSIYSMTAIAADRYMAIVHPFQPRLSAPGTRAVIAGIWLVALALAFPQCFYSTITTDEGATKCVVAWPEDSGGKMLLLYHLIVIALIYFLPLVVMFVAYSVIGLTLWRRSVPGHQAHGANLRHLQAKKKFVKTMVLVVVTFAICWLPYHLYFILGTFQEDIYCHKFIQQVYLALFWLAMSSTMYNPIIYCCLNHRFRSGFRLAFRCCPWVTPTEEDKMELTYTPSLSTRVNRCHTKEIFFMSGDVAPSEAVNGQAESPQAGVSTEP
In words: Antagonism of NK2 receptor mediated (NKA-induced) phosphatidylinositol turnover in SKLKB82#3 cells. It counts as cell-based. As to conditions: SKLKB82#3 cells, NKA; Schild slope, mean (95% confidence limits). As to the method: as §1
as §2, with “The ratios in the presence of test compound and/or standards were compared to the ratios for control samples (i.e. no stimulating agonist).” left out

Test [3] deals with NK1 and NK2 receptors. In words: Modulation of respiratory effects produced by capsaicin aerosol in conscious guinea pigs. Format: in vivo, guinea pig. As to the method:
(§3) In vivo experiments were performed using male Duncan Hartley guinea pigs (250-350g). Changes in conscious breathing patterns were monitored in four animals simultaneously using modified whole body plethysmography consisting of four small plexiglass boxes each connected to a reference box via Validyne DP 45-16 differential pressure transducers. The 4 boxes were equipped with an air supply line (also used for aerosol delivery) and an exhaust air line. Supply and exhaust lines were of the same length and narrow bore and arose from a common supply chamber and vented to a common exhaust chamber. This system was used to ensure that fluctuations in supply air and atmospheric pressure would remain in phase and be eliminated from the net signal by the differential pressure transducers. The analog pressure signals were digitalized via a Data Translation DT2821 A to D board. Data were collected at a rate of 100 samples/second/animal. Each cycle of pressure change was analyzed using the following parameters: rising and falling slope determined between minimum and maximum pressures, the ratio of rising over falling slope, and the magnitude of the change between initial trough pressure and peak cycle pressure. Using these values (and observing the animals) the pressure cycles were characterized into normal breaths, forced exhalations (apparent by abdominal heaving), significant respiratory events (SREs; usually coughs, less often sneezes or gasps which were characterized by transient, extremely large pressure increases which were distinguishable from noise) and movement/noise with a PCAT 286 running a System V UNIX operating system. Dyspnea was defined as a significant, sustained increase in plethysmograph pressure which was associated with an observable shift to labored breathing in the animal.
(§4) During the course of a typical experiment in which airway responsiveness to various bronchoconstricting agents was examined, aerosols were delivered for 19 min (0.33 ml/min) using a DeVilbiss Ultraneb 99 ultrasonic nebulizer and animals monitored during this time. Prior to nebulization, 1 min of resting breathing was collected to establish a baseline pressure. […] The vehicle for nebulization of all bronchoconstrictive agents was phosphate buffered saline (pH 7.4) which elicited no respiratory effects itself. Putative tachykinin antagonists were administered either (i.v.) 20 min prior to onset of aerosol exposure or orally 1 hour prior to onset (to guinea pigs after an overnight fast).
Capsaicin aerosol is known to promote release of the tachykinins SP and NKA from sensory nerves in the airways of guinea pigs which may then act upon NK1 and NK2 receptors, respectively to elicit respiratory effects.

For test [4], the target named is T3, NK1 receptor (Cavia porcellus, UniProt P30547).
T3 construct: evaluated in guinea pig lungs; tissue Keystone Biologicals, Cleveland, OH; host or cells: guinea pig lung
In words: Antagonism of SP-induced plasma protein extravasation in guinea pig trachea. Conditions: guinea pig, iv; i.v. 2 min prior to SP; mean (95% confidence limits); at least 3 doses, at least 4 animals per dose; read-out: ED50 for inhibition of SP-induced plasma protein extravasation. It counts as in vivo. The procedure: SP-induced protein leakage through postcapillary venules was assessed by measuring Evans Blue dye accumulation in guinea pig trachea. Animals were anesthetized with pentobarbital then injected with Evans Blue dye (20 mg/kg, i.v., prepared in 0.9% NaCl solution). One minute after dye administration, the antagonist was administered (i.v.) followed by SP (0.3 nmole/kg, i.v.) and, after 5 min, excess dye removed from the circulation by transcardiac perfusion with 50 ml 0.9% NaCl solution. The trachea and primary bronchi were removed, blotted dry and weighed. Dye quantitation was performed spectrophotometrically ([…]) after extracting tissues in formamide for 24 hr at 50° C.. Values were subtracted from background (dye only, no agonist). ED50 (dose of compound which inhibits SP-induced plasma protein extravasation by 50%) was calculated from linear regression analysis.

Test [5] relates to NK2 receptor. In words: Antagonism of NKA-induced respiratory effects in conscious guinea pigs. It counts as in vivo, guinea pig. Conditions: for dyspnea incidence: i.v. 20 min prior to NKA aerosol (0.05%). As to the method:
as §3, §4

T1 sequence (P25103 whole entry): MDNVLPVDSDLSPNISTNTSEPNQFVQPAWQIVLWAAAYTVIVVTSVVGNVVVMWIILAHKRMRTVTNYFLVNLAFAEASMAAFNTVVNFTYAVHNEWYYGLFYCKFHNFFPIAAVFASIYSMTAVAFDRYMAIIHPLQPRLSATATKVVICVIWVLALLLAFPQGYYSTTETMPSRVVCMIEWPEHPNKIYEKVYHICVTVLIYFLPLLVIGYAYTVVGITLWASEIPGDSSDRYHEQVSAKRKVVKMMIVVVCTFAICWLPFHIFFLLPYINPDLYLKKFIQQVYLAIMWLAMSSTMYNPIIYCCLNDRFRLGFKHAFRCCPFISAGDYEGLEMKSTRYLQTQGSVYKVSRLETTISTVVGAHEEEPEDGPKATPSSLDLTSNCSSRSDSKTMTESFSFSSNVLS
T3 sequence (P30547 whole entry): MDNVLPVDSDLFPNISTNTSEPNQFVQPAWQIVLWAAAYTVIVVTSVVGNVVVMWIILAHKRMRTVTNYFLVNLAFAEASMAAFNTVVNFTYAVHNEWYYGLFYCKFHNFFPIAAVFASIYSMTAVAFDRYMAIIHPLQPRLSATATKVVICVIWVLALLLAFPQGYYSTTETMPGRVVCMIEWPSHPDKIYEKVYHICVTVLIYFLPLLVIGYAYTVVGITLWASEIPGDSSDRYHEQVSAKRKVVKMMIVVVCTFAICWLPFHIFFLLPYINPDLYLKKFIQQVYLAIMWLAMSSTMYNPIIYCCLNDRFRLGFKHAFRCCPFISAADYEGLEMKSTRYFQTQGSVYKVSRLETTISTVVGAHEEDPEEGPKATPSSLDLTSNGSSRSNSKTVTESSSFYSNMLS

As to `COc1cc(C(=O)N2CCC(CCN3CCC(C(N)=O)(c4ccccc4)CC3)(c3ccc(Cl)c(Cl)c3)C2)cc(OC)c1OC` (racemic) [Example 3A, 1-[2-[3-(3,4-dichloro-phenyl)-1-(3,4,5-trimethoxy-benzoyl)-pyrrolidin-3-yl]-ethyl]-4-phenyl-piperidine-4-carboxylic acid amide hydrochloride], the “relative antagonism of NK1 and NK2 receptors (in words)” value in test [1] was “antagonized both NK1 and NK2 receptors by nearly equivalent amounts”. Also, the NK-1 receptor slope in test [1] (UC11 cells, SP, Schild slope, mean (95% confidence limits)) was found to be 0.90. This compound registered an NK-2 receptor slope in test [2] of 0.73. The dyspnea incidence in test [3] (10 mg/kg, i.v. 20 min prior to capsaicin aerosol (0.001%)) is recorded as 89%; in test [3] (25 mg/kg, oral gavage 1 hr prior to capsaicin aerosol (0.001%)) it was 80%; in test [3] (50 mg/kg, oral gavage 1 hr prior to capsaicin aerosol (0.001%)), 70%; in test [3] (100 mg/kg, oral gavage 1 hr prior to capsaicin aerosol (0.001%)), 50%. Besides, the results for the “effect on capsaicin-induced respiratory effects (in words)” value in test [3] (intravenous) and in test [3] (oral) were “attenuate capsaicin-induced respiratory effects” and “antagonize the effects of capsaicin aerosol when administered orally”, respectively. In addition, the ED50 in test [4] is 0.17 mg/kg.

In the case of `COc1cccc(OC)c1C(=O)N1CCC(CCN2CCC(C(N)=O)(c3ccccc3)CC2)(c2ccc(Cl)c(Cl)c2)C1` (stereo not drawn) [Example 5, 1-[2-[3-(3,4-dichloro-phenyl)-1-(2,6-dimethoxy-benzoyl)-pyrrolidin-3-yl]-ethyl]-4-phenyl-piperidine-4-carboxylic acid amide], the “effect on capsaicin-induced respiratory effects (in words)” value in test [3] (oral) is reported as “antagonize the effects of capsaicin aerosol when administered orally”.

Take `COc1cccc(OC)c1C(=O)N1CCC(CCN2CCC(C(N)=O)(c3ccccc3)CC2)(c2ccc(Cl)c(Cl)c2)C1` (stereo not drawn) [Example 5A, 1-[2-[3-(3,4-dichloro-phenyl)-1-[2,6-dimethoxy-benzoyl)-pyrrolidin-3-yl]-ethyl]-4-phenylpiperidine-4-carboxylic acid amide hydrochloride]: the “relative antagonism of NK1 and NK2 receptors (in words)” value in test [1] is “antagonized both NK1 and NK2 receptors by nearly equivalent amounts”. The dyspnea incidence is reported as 60% in test [5] (5 mg/kg) and 54% in test [5] (10 mg/kg). Besides, the “effect on NKA-induced respiratory effects (in words)” value in test [5] (NKA aerosol, dose dependent) is “reduced the effects of NKA aerosol”.

Broadly, the ED50 is the dose at which the effect has come halfway, by size or by number of responders.
